Results as given in patent US20020173491A1, “DAPD combination therapy with inosine monophosphate dehydrogenase inhibitor” (priority 2000, published 2002).
pEC50: −log10 of the molar value. Where two headings read alike, the source gives them in different places. Marks after values point to notes of the source that are not given here.

Key:
xxLAI strain of HIV-1 = assay: microbe, parasite or virus in culture; assay type: cell-based; settings: for effect of addition of 0.25 μM MPA on anti-HIV activity in PBMCs / effect of addition of 20 μM RBV on anti-HIV activity in PBMCs / Fold difference in EC50, 0.01 μM MPA / Fold difference in EC50, 0.1 μM MPA / Fold difference in EC50, 0.25 μM MPA / Fold difference in EC50, 5 μM RBV / Fold difference in EC50, 10 μM RBV / Fold difference in EC50, 20 μM RBV: PBMC; for effect of addition of 0.25 μM MPA on anti-HIV activity in PBMCs / effect of addition of 20 μM RBV on anti-HIV activity in PBMCs: all the concentrations tested; for Fold difference in EC50, 0.01 μM MPA: control vs with 0.01 μM MPA; for Fold difference in EC50, 0.1 μM MPA: control vs with 0.1 μM MPA; for Fold difference in EC50, 0.25 μM MPA: control vs with 0.25 μM MPA; for Fold difference in EC50, 5 μM RBV: control vs with 5 μM RBV; for Fold difference in EC50, 10 μM RBV: control vs with 10 μM RBV; for Fold difference in EC50, 20 μM RBV: control vs with 20 μM RBV
Procedure: In this assay, cell supernatants were incubated on microelisa wells coated with antibodies to HIV-1 p24 core antigen. Subsequently, anti-HIV-1 conjugate labeled with horseradish peroxidase was added. The labeled antibody bound to the solid phase antibody/antigen complexes previously formed. Addition of the tetramethylbenzidine substrate results in blue color formation. The color turned yellow when the reaction is stopped. The plates were then analyzed on a plate reader set at 490 nm. The absorbance is a direct measurement of the amount of HIV-1 produced in each well and a decrease in color indicates decreased viral production. […] PBMC were obtained from HIV-1 negative donors by banding on Ficoll gradients, stimulated with phytohemaglutinin (PHAP) for 48 hours prior to infection with HIV-1, and infected with virus for 4 hours at 37° C. at a MOI of 0.001. […] Plates were incubated for 3 days at 37° C. The concentration of virus in each well was determined using the NEN p24 assay. Using the absorption values of the cell controls as 100% protection and drug free, virus infected cells as 0% protection, a dose response curve is generated by plotting percent protection on the Y axis and drug concentration on the X axis. From this curve, EC50 values were determined.
Compound dilutions and assay conditions were as described above.
MPA was also tested for activity against the xxLAI strain of HIV-1 in PBMCs using a p24 based Elisa assay. In this assay, cell supernatants are incubated on microelisa wells coated with antibodies to HIV-1 p24 core antigen. Subsequently, anti-HIV-1 conjugate labeled with horse radish peroxidase is added. The labeled antibody binds to the solid phase antibody/antigen complexes previously formed. Addition of the tetramethylbenzidine substrate results in blue color formation. The color turns yellow when the reaction is stopped. The plates are then analyzed on a plate reader set at 490 nm. The absorbance is a direct measurement of the amount of HIV-1 produced in each well and a decrease in color indicates decreased viral production. Dilutions of MPA were made in cell culture media in a 96 well plate, the highest concentration of MPA tested was 1 μM. PBMC were obtained from HIV-1 negative donors by banding on Ficoll gradients, stimulated with phytohemaglutinin (PHAP) for 48 hours prior to infection with HIV-1, and infected with virus for 4 hours at 37° C. at a MOI of 0.001. Infected cells were seeded into 96 well plates containing 4-fold serial dilutions of MPA. Plates were incubated for 3 days at 37° C. The concentration of virus in each well was determined using the NEN p24 assay. Using the absorption values of the cell controls as 100% protection and drug free, virus infected cells as 0% protection, a dose response curve is generated by plotting % protection on the Y axis and drug concentration on the X axis. From this curve EC50 values were determined.
Compound dilutions and assay conditions were as described above. The concentrations of MPA used were 1, 0.5, 0.25, 0.1, and 0.01 μM.

HIV-1 mutant K65R = assay: MT2/XTT combination assay, resistant virus K65R; assay type: cell-based; settings: for pEC50: Human immunodeficiency virus 1, K65R; for fold difference from WT: K65R
Procedure: Triplicate samples of compound were tested. MT2 cells were infected with xxLAI at a multiplicity of infection (MOI) of 0.03 for 3 hours at 37° C. in 5% CO2. The infected cells were plated at 3.0×10^4/well into a 96 well plated containing drug dilutions and incubated for 5 days at 37° C. in CO2. […] This method has been modified into a susceptibility assay and has been used in a variety of in vitro antiviral tests and is readily adaptable to any system with a lytic virus (Weislow, O. S., et. al. 1989). Using the absorption values of the cell controls as 100% protection and no drug, virus infected cells as 0% protection, a dose response curve is generated by plotting % protection on the Y axis and drug concentration on the X axis. From this curve EC50 values were determined.
Assays were performed in the MT2 cell line as described above in the XXT sensitivity assay section.
(§1) The restraint strains analyzed included viruses created by site directed mutagenesis, K65R and L74V, as well as a recombinant virus containing mutations at positions 98S, 116Y, 151M and 215Y. The wild type backbone in which these mutants were created, xxLAI, was also analyzed for comparison. The concentrations of DAPD and DXG tested were as described in the above MT2/XTT combination assay section.
The concentrations of MPA used were 1, 0.5, 0.25, 0.1, and 0.01 μM. Assays were performed in the MT2 cell line as described in section 3.1.
as §1, with “section 4.1. MPA was tested in” for “the above MT2/XTT”, “with DAPD and DXG at a fixed concentration of 0.25 μM.” for “assay section.”

[1] = Human immunodeficiency virus 1, PBMC, read-out: Mean EC50, Control, PMBCs, no MPA
[2] = Human immunodeficiency virus 1, PBMC, read-out: Mean EC50, Control, PMBCs, no RBV
[3] = read-out: Mean EC50, 0.01 μM MPA, PMBCs, with 0.01 μM MPA
[4] = read-out: Mean EC50, 0.1 μM MPA, PMBCs, with 0.1 μM MPA
[5] = read-out: Mean EC50, 0.25 μM MPA, PMBCs, with 0.25 μM MPA
[6] = read-out: Mean EC50, 1 μM RBV, PMBCs, with 1 μM RBV
[7] = read-out: Mean EC50, 5 μM RBV, PMBCs, with 5 μM RBV
[8] = read-out: Mean EC50, 10 μM RBV, PMBCs, with 10 μM RBV
[9] = read-out: Mean EC50, 20 μM RBV, PMBCs, with 20 μM RBV

Nc1nc(N)c2ncn(C3COC(CO)O3)c2n1 (single isomer, unassigned; (-)) [DAPD]
pEC50 (xxLAI strain of HIV-1; [1]): 5.39
pEC50 (xxLAI strain of HIV-1; [2]): 5.35
effect of addition of 0.25 μM MPA on anti-HIV activity in PBMCs (xxLAI strain of HIV-1; with 0.25 μM MPA): completely inhibited HIV replication
effect of addition of 20 μM RBV on anti-HIV activity in PBMCs (xxLAI strain of HIV-1; with 20 μM RBV): completely inhibited HIV replication
Fold difference in EC50, 0.01 μM MPA (xxLAI strain of HIV-1): 4.6 fold
Fold difference in EC50, 0.1 μM MPA (xxLAI strain of HIV-1): 22.8 fold
Fold difference in EC50, 0.25 μM MPA (xxLAI strain of HIV-1): >50 fold
Fold difference in EC50, 5 μM RBV (xxLAI strain of HIV-1): 6.4 fold
Fold difference in EC50, 10 μM RBV (xxLAI strain of HIV-1): 28 fold
Fold difference in EC50, 20 μM RBV (xxLAI strain of HIV-1): >150 fold
pEC50 (xxLAI strain of HIV-1; [3]): 6.05
pEC50 (xxLAI strain of HIV-1; [4]): 6.74
pEC50 (xxLAI strain of HIV-1; [5]): > 9.70
pEC50 (xxLAI strain of HIV-1; [6]): 5.65
pEC50 (xxLAI strain of HIV-1; [7]): 6.15
pEC50 (xxLAI strain of HIV-1; [8]): 6.80
pEC50 (xxLAI strain of HIV-1; [9]): > 7.52
pEC50 (HIV-1 mutant K65R; compound alone (Table 4)): 4.36
pEC50 (HIV-1 mutant K65R; compound alone (Table 10)): 4.39
fold difference from WT (HIV-1 mutant K65R; compound alone (Table 4)): (5.5)^b fold
fold difference from WT (HIV-1 mutant K65R; compound alone (Table 10)): 6 fold

Nc1nc2c(ncn2C2COC(CO)O2)c(=O)[nH]1 (single isomer, unassigned; (-)) [DXG]
pEC50 (xxLAI strain of HIV-1; [1]): 6.85
pEC50 (xxLAI strain of HIV-1; [2]): 6.82
effect of addition of 0.25 μM MPA on anti-HIV activity in PBMCs (xxLAI strain of HIV-1; with 0.25 μM MPA): completely inhibited HIV replication
effect of addition of 20 μM RBV on anti-HIV activity in PBMCs (xxLAI strain of HIV-1; with 20 μM RBV): completely inhibited HIV replication
Fold difference in EC50, 0.01 μM MPA (xxLAI strain of HIV-1): 9.3 fold
Fold difference in EC50, 0.1 μM MPA (xxLAI strain of HIV-1): 23.3 fold
Fold difference in EC50, 0.25 μM MPA (xxLAI strain of HIV-1): >50 fold
Fold difference in EC50, 5 μM RBV (xxLAI strain of HIV-1): 5.6 fold
Fold difference in EC50, 10 μM RBV (xxLAI strain of HIV-1): >15 fold
Fold difference in EC50, 20 μM RBV (xxLAI strain of HIV-1): >15 fold
pEC50 (xxLAI strain of HIV-1; [3]): 7.82
pEC50 (xxLAI strain of HIV-1; [4]): 8.22
pEC50 (xxLAI strain of HIV-1; [5]): > 9.70
pEC50 (xxLAI strain of HIV-1; [6]): 7.12
pEC50 (xxLAI strain of HIV-1; [7]): 7.57
pEC50 (xxLAI strain of HIV-1; [8]): > 8.00
pEC50 (xxLAI strain of HIV-1; [9]): > 8.00
pEC50 (HIV-1 mutant K65R; compound alone (Table 4)): 5.41
pEC50 (HIV-1 mutant K65R; compound alone (Table 10)): 5.40
fold difference from WT (HIV-1 mutant K65R; compound alone (Table 4)): 5 fold
fold difference from WT (HIV-1 mutant K65R; compound alone (Table 10)): 5.6 fold
